Data taken from US20160223562A1, “Method for Determining the Concentration of a Peptide” (JPT Peptide Technologies GmbH, priority 2010, published 2016).
Square brackets hold non-standard residues; d marks the D form. Peptide text beside a SMILES is read from it. Tyr(3-NO2) = N[C@@H](Cc1ccc(O)c([N+](=O)[O-])c1)C(=O)O

Legend:
[1] = molecular target: T1, Trypsin (Sus scrofa, UniProt P00761); test: Trypsin cleavage of C-terminal quantification tag -SA-nitroTyr-G from peptides, LC-MS with UV detection at 350 nm; type: biochemical; conditions: for Percent Cleavage of Tag [by UV at 350 nm]: after reduction and alkylation, trypsin enzyme/substrate 1:50 over night at RT
T1 construct: purchased Promega Corporation V511
Experimental: 23 peptides carrying the C-terminal quantification-tag-SA-nitroTyr-G-OH (SEQ ID NO:2) were synthesized by Fmoc-based solid phase peptide synthesis and purified by HPLC. Each peptide was subjected to the following trypsin cleavage protocol:
(§1) Trypsin Activation: Trypsin (20 μg, sequencing grade modified trypsin, Promega Corporation, Madison, Wis., USA, catalogue no. V511, specific activity 16.965 u/mg) was dissolved in Trypsin resuspension buffer (200 μL, Promega, catalogue no. V542A, ingredient 50 mM acetic acid) and incubated for 15 min at 37° C.
(§2) Reduction and alkylation: The peptide (approx. 0.05 mg) was dissolved in 1 M urea and 100 mM fresh ammonium hydrogen carbonate (300 μL). TCEP (Tris(2-carboxyethyl) phosphine hydrochloride, 0.2 M, 7.5 μL, final concentration 5 mM) was added and the solution incubated at 37° C. for 1 h. After addition of iodoacetamide (0.5 M, 6.0 μL, final concentration 10 mM) the solution was incubated at RT in the dark for another 30 min. Digestion: The sample was digested with activated Trypsin solution (10 μL per well, 1.0 μg, resulting enzyme/substrate ratio 1:50) over night at RT. To stop the digestion, HCl (2 M, 8 μL final concentration 50 mM) and TFA (3.2 μL, final concentration 1%, pH<2) were added. Finally, the sample was analyzed by LC-MS at 350 nm.

[2] = molecular target: T1, Trypsin; test: Trypsin cleavage of N-terminal quantification tag Ac-nitroTyr-SGK- from peptides, LC-MS with UV detection at 350 nm; type: biochemical; conditions: for Kusebauch 24 h, RT: Percent Cleavage of Tag [by UV350 - Peptide-Tag vs. Tag]: trypsin protocol of example 9, 24 h; for cleavage efficiency in words: trypsin
Experimental: as §1, §2
38 peptides carrying the N-terminal quantification-tag Ac-nitroTyr-SGK-(SEQ ID NO:32) were synthesized by SPOT synthesis (Table 3). The peptide sequences are based on two different amino acid sequences, which in each case contain 19 different amino acids N-terminally attached to lysine (the 20 naturally occurring amino acids except cysteine).
All peptides were subjected to the same trypsin cleavage protocol as described in example 9. It is apparent that the quantification tag is efficiently cleaved (>99%) in nearly all cases.

T1 sequence (P00761 9-231): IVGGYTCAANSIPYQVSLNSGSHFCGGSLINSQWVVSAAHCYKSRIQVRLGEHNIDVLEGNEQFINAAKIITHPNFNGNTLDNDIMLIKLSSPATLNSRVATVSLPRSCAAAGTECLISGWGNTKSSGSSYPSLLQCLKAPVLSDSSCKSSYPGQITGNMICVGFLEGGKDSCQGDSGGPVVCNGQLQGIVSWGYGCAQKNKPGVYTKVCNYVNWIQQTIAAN

Compound | Percent Cleavage of Tag [by UV at 350 nm] [1] [%] | Kusebauch 24 h, RT: Percent Cleavage of Tag [by UV350 - Peptide-Tag vs. Tag] [2] [%] | cleavage efficiency (LC-MS and UV detection at 350 nm) ([1]; trypsin over night at RT) [%] | cleavage efficiency in words [2]
CC(=O)N[C@@H](Cc1ccc(O)c([N+](=O)[O-])c1)C(=O)N[C@@H](CO)C(=O)NCC(=O)N[C@@H](CCCCN)C(=O)N[C@@H](C)C(=O)N[C@H](C(=O)N[C@@H](C)C(=O)N[C@@H](CC(C)C)C(=O)N[C@@H](CO)C(=O)N[C@@H](CC(C)C)C(=O)N[C@@H](CC(=O)O)C(=O)N[C@@H](CC(=O)O)C(=O)N[C@H](C(=O)N[C@@H](CCCCN)C(=O)O)C(C)C)C(C)C [Peptide 21, Ac-nitroTyr-SGKAVALSLDDV-K-OH] (Ac-[Tyr(3-NO2)]SGKAVALSLDDVK-OH) | 100 | 100.0 |  | 
CC[C@H](C)[C@H](NC(=O)[C@H](Cc1ccccc1)NC(=O)[C@H](Cc1ccc(O)cc1)NC(=O)[C@H](Cc1c[nH]cn1)NC(=O)[C@@H](NC(=O)[C@H](CC(N)=O)NC(=O)[C@H](CCCCN)NC(=O)CNC(=O)[C@H](CO)NC(=O)[C@H](Cc1ccc(O)c([N+](=O)[O-])c1)NC(C)=O)[C@@H](C)O)C(=O)N[C@@H](CC(=O)O)C(=O)N[C@@H](CC(C)C)C(=O)N[C@@H](CC(N)=O)C(=O)N[C@@H](CCCCN)C(=O)O [Peptide 12, Ac-nitroTyr-SGKNTHYFIDLN-K-OH] (Ac-[Tyr(3-NO2)]SGKNTHYFIDLNK-OH) | 100 | 100.0 |  | 
CC[C@H](C)[C@H](NC(=O)[C@H](Cc1ccccc1)NC(=O)[C@H](Cc1ccc(O)cc1)NC(=O)[C@H](Cc1c[nH]cn1)NC(=O)[C@@H](NC(=O)CNC(=O)[C@H](CCCCN)NC(=O)CNC(=O)[C@H](CO)NC(=O)[C@H](Cc1ccc(O)c([N+](=O)[O-])c1)NC(C)=O)[C@@H](C)O)C(=O)N[C@@H](CC(=O)O)C(=O)N[C@@H](CC(C)C)C(=O)N[C@@H](CC(N)=O)C(=O)N[C@@H](CCCCN)C(=O)O [Peptide 6, Ac-nitroTyr-SGKGTHYFIDLN-K-OH] (Ac-[Tyr(3-NO2)]SGKGTHYFIDLNK-OH) | 100 | 100.0 |  | 
CC[C@H](C)[C@H](NC(=O)[C@H](Cc1ccccc1)NC(=O)[C@H](Cc1ccc(O)cc1)NC(=O)[C@H](Cc1c[nH]cn1)NC(=O)[C@@H](NC(=O)[C@@H](NC(=O)[C@H](CCCCN)NC(=O)CNC(=O)[C@H](CO)NC(=O)[C@H](Cc1ccc(O)c([N+](=O)[O-])c1)NC(C)=O)[C@@H](C)CC)[C@@H](C)O)C(=O)N[C@@H](CC(=O)O)C(=O)N[C@@H](CC(C)C)C(=O)N[C@@H](CC(N)=O)C(=O)N[C@@H](CCCCN)C(=O)O [Peptide 8, Ac-nitroTyr-SGKITHYFIDLN-K-OH] (Ac-[Tyr(3-NO2)]SGKITHYFIDLNK-OH) | 100 | 100.0 |  | 
CC[C@H](C)[C@H](NC(=O)[C@H](Cc1ccccc1)NC(=O)[C@H](Cc1ccc(O)cc1)NC(=O)[C@H](Cc1c[nH]cn1)NC(=O)[C@@H](NC(=O)[C@H](Cc1ccc(O)cc1)NC(=O)[C@H](CCCCN)NC(=O)CNC(=O)[C@H](CO)NC(=O)[C@H](Cc1ccc(O)c([N+](=O)[O-])c1)NC(C)=O)[C@@H](C)O)C(=O)N[C@@H](CC(=O)O)C(=O)N[C@@H](CC(C)C)C(=O)N[C@@H](CC(N)=O)C(=O)N[C@@H](CCCCN)C(=O)O [Peptide 20, Ac-nitroTyr-SGKYTHYFIDLN-K-OH] (Ac-[Tyr(3-NO2)]SGKYTHYFIDLNK-OH) | 74.7 | 100.0 | 75 | 
CC[C@H](C)[C@H](NC(=O)[C@H](Cc1ccccc1)NC(=O)[C@H](Cc1ccc(O)cc1)NC(=O)[C@H](Cc1c[nH]cn1)NC(=O)[C@@H](NC(=O)[C@@H]1CCCN1C(=O)[C@H](CCCCN)NC(=O)CNC(=O)[C@H](CO)NC(=O)[C@H](Cc1ccc(O)c([N+](=O)[O-])c1)NC(C)=O)[C@@H](C)O)C(=O)N[C@@H](CC(=O)O)C(=O)N[C@@H](CC(C)C)C(=O)N[C@@H](CC(N)=O)C(=O)N[C@@H](CCCCN)C(=O)O [Peptide 13, Ac-nitroTyr-SGKPTHYFIDLN-K-OH] (Ac-[Tyr(3-NO2)]SGKPTHYFIDLNK-OH) | 99.4 | 37.0 |  | not efficiently cleaved
Ac-nitroTyr-SGKATHYFIDLN-K-OH (Ac-[Tyr(3-NO2)]SGKATHYFIDLNK-OH; SMILES CC[C@H](C)[C@H](NC(=O)[C@H](Cc1ccccc1)NC(=O)[C@H](Cc1ccc(O)cc1)NC(=O)[C@H](Cc1c[nH]cn1)NC(=O)[C@@H](NC(=O)[C@H](C)NC(=O)[C@H](CCCCN)NC(=O)CNC(=O)[C@H](CO)NC(=O)[C@H](Cc1ccc(O)c([N+](=O)[O-])c1)NC(C)=O)[C@@H](C)O)C(=O)N[C@@H](CC(=O)O)C(=O)N[C@@H](CC(C)C)C(=O)N[C@@H](CC(N)=O)C(=O)N[C@@H](CCCCN)C(=O)O) [Peptide 1] | 100 | 100.0 |  | 
CC[C@H](C)[C@H](NC(=O)[C@H](Cc1ccccc1)NC(=O)[C@H](Cc1ccc(O)cc1)NC(=O)[C@H](Cc1c[nH]cn1)NC(=O)[C@@H](NC(=O)[C@H](CCCCN)NC(=O)[C@H](CCCCN)NC(=O)CNC(=O)[C@H](CO)NC(=O)[C@H](Cc1ccc(O)c([N+](=O)[O-])c1)NC(C)=O)[C@@H](C)O)C(=O)N[C@@H](CC(=O)O)C(=O)N[C@@H](CC(C)C)C(=O)N[C@@H](CC(N)=O)C(=O)N[C@@H](CCCCN)C(=O)O [Peptide 9, Ac-nitroTyr-SGKKTHYFIDLN-K-OH] (Ac-[Tyr(3-NO2)]SGKKTHYFIDLNK-OH) | 99.2 | 100.0 |  | good cleavage efficiencies
CC[C@H](C)[C@H](NC(=O)[C@H](Cc1ccccc1)NC(=O)[C@H](Cc1ccc(O)cc1)NC(=O)[C@H](Cc1c[nH]cn1)NC(=O)[C@@H](NC(=O)[C@H](CO)NC(=O)[C@H](CCCCN)NC(=O)CNC(=O)[C@H](CO)NC(=O)[C@H](Cc1ccc(O)c([N+](=O)[O-])c1)NC(C)=O)[C@@H](C)O)C(=O)N[C@@H](CC(=O)O)C(=O)N[C@@H](CC(C)C)C(=O)N[C@@H](CC(N)=O)C(=O)N[C@@H](CCCCN)C(=O)O [Peptide 16, Ac-nitroTyr-SGKSTHYFIDLN-K-OH] (Ac-[Tyr(3-NO2)]SGKSTHYFIDLNK-OH) | 100 | 100.0 |  | 
CC[C@H](C)[C@H](NC(=O)[C@H](Cc1ccccc1)NC(=O)[C@H](Cc1ccc(O)cc1)NC(=O)[C@H](Cc1c[nH]cn1)NC(=O)[C@@H](NC(=O)[C@H](CCC(N)=O)NC(=O)[C@H](CCCCN)NC(=O)CNC(=O)[C@H](CO)NC(=O)[C@H](Cc1ccc(O)c([N+](=O)[O-])c1)NC(C)=O)[C@@H](C)O)C(=O)N[C@@H](CC(=O)O)C(=O)N[C@@H](CC(C)C)C(=O)N[C@@H](CC(N)=O)C(=O)N[C@@H](CCCCN)C(=O)O [Peptide 14, Ac-nitroTyr-SGKQTHYFIDLN-K-OH] (Ac-[Tyr(3-NO2)]SGKQTHYFIDLNK-OH) | 99.6 | 100.0 |  | 
CC[C@H](C)[C@H](NC(=O)[C@H](Cc1ccccc1)NC(=O)[C@H](Cc1ccc(O)cc1)NC(=O)[C@H](Cc1c[nH]cn1)NC(=O)[C@@H](NC(=O)[C@H](CCCNC(=N)N)NC(=O)[C@H](CCCCN)NC(=O)CNC(=O)[C@H](CO)NC(=O)[C@H](Cc1ccc(O)c([N+](=O)[O-])c1)NC(C)=O)[C@@H](C)O)C(=O)N[C@@H](CC(=O)O)C(=O)N[C@@H](CC(C)C)C(=O)N[C@@H](CC(N)=O)C(=O)N[C@@H](CCCCN)C(=O)O [Peptide 15, Ac-nitroTyr-SGKRTHYFIDLN-K-OH] (Ac-[Tyr(3-NO2)]SGKRTHYFIDLNK-OH) | 100 | 100.0 |  | good cleavage efficiencies
CC[C@H](C)[C@H](NC(=O)[C@H](Cc1ccccc1)NC(=O)[C@H](Cc1ccc(O)cc1)NC(=O)[C@H](Cc1c[nH]cn1)NC(=O)[C@@H](NC(=O)[C@H](Cc1c[nH]c2ccccc12)NC(=O)[C@H](CCCCN)NC(=O)CNC(=O)[C@H](CO)NC(=O)[C@H](Cc1ccc(O)c([N+](=O)[O-])c1)NC(C)=O)[C@@H](C)O)C(=O)N[C@@H](CC(=O)O)C(=O)N[C@@H](CC(C)C)C(=O)N[C@@H](CC(N)=O)C(=O)N[C@@H](CCCCN)C(=O)O [Peptide 19, Ac-nitroTyr-SGKWTHYFIDLN-K-OH] (Ac-[Tyr(3-NO2)]SGKWTHYFIDLNK-OH) | 100 | 100.0 |  | 
